The subject of data set [1] is rat adjuvant arthritis model. The data set can be described thus: Rat adjuvant arthritis model, hindpaw oedema volume. Type of data set: in vivo. The following applies: male Lewis rats, two doses of 10 mg/kg orally each day, day 13 to day 17. The protocol:
The compound of Example 1 was tested in a rat adjuvant arthritis model.
Adjuvant arthritis was produced in male Lewis rats (Charles River) by a single intradermal injection of 0.75 mg of M. butyricum in light parafin oil (Freund's complete adjuvant) into the base of the tail. The "secondary" lesion occurs after a delay of 10 days, and is characterised by inflammation of the hindpaws. Hindpaw oedema volumes were measured plethysmographically by water displacement. Animals in the treated groups received two doses of 10 mg/kg of the test compound in PBS/0.1% Tween orally, each day, from day 13 to day 17. Results are reported as paw volume change from the volume measured on day 13.

Data set [2] can be described thus: Systemic blood concentration of inhibitor over 24 hours after oral dosing in rats, by collagenase inhibitory activity of blood extracts. Type of data set: in vivo, rat. The following applies: 10 mg/kg in PBS/0.1% Tween 80 by gavage, male rats, 0.5-24 hours, drug plus any active metabolites, collagenase assay. The protocol:
The biological efficacy of a compound of the invention in chronic disease states is a function of the systemic blood concentration maintained over time, and its intrinsic potency. These factors can be quantified as IC50.hrs (24 hrs), which parameter is defined as the total number of IC50 s in the blood over the 24 hours post dosing, the IC50 being defined as the concentration of the compound that reduces collagenase activity to 50% of its normal value.:
Test compounds were administered at 10 mg/kg in PBS/0.1% Tween 80 by gavage to 6 male rats (300 g) per treatment group. Blood samples were removed by tail venepuncture at 0.5, 1.0, 2.0, 6.0 and 24 hours post administration. 0.5 ml of blood was placed into 4.5 ml tubes containing 0.1 ml acid citrate dextrose (ACD) as anti-coagulant. For extraction, 3 ml methanol was added and the precipitated blood pelletted by centrifugation (30 min at 3000 rpm). A 2 ml aliquot of supernatant was removed and dried by lyophilisation. The extract was redissolved in 200 μl DMSO and a 10 μl aliquot assayed for collagenase inhibitory activity. The inhibitory activity in the extracts was determined using the collagenase assay described in Biological Example A above, and the concentration of inhibitor (that is drug plus any active metabolites) obtained by comparison with standard curves. […]

Data set [3] has as its target T1, collagenase (Homo sapiens, UniProt P03956).
T1 sequence (P03956 100-469): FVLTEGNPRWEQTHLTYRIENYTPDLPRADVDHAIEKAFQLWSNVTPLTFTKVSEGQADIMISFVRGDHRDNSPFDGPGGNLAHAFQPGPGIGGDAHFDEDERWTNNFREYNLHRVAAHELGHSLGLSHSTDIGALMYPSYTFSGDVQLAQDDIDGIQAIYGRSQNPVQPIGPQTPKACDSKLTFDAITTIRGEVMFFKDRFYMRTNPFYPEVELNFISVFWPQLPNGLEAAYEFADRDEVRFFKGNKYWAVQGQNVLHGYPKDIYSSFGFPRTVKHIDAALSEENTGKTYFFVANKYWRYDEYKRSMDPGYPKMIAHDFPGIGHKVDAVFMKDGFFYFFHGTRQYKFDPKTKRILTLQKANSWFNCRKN
Put plainly: Inhibition of collagenase (procedure of Cawston and Barrett, acetylated 14C collagen). Type of data set: biochemical. The following applies: 37°, 16 hours, pH 7.5. How it is done: The potency of compounds of the invention as inhibitors of collagenase was determined by the procedure of Cawston and Barrett, (Anal. Biochem., 99, 340-345, 1979), hereby incorporated by reference, whereby a 1 mM solution of the compound being tested, or a dilution thereof, was incubated at 37° for 16 hours with collagen and collagenase (buffered with 25 mM Hepes, pH 7.5 containing 5 mM CaCl2, 0.05% Brij 35 and 0.02% NaN3). The collagen was acetylated ^14 C collagen prepared by the method of Cawston and Murphy, (Methods in Enzymology, 80, 711, 1981), hereby incorporated by reference. The samples were centrifuged to sediment undigested collagen, and an aliquot of the radioactive supernatant removed for assay on a scintillation counter as a measure of hydrolysis.

Data set [4] addresses stromelysin (Homo sapiens, UniProt P08254). Put plainly: Inhibition of stromelysin (procedure of Cawston et al, acetylated 14C casein). Type of data set: biochemical. As to conditions: 37°, 16 hours, pH 7.5. The protocol: The potency of compounds of the invention as inhibitors of stromelysin was determined by the procedure of Cawston et al, (Biochem. J., 195, 159-165, 1981), hereby incorporated by reference, whereby a 1 mM solution of the compound being tested, or a dilution thereof, was incubated at 37° for 16 hours with stromelysin and ^14 C acetylate casein (buffered with 25 mM Hepes, pH 7.5 containing 5 mM CaCl2, 0.05% Brij 35 and 0.02% NaN3). The casein was acetylated ^14 C casein prepared by the method of Cawston et al (ibid).

Chain of stromelysin (P08254 100-477): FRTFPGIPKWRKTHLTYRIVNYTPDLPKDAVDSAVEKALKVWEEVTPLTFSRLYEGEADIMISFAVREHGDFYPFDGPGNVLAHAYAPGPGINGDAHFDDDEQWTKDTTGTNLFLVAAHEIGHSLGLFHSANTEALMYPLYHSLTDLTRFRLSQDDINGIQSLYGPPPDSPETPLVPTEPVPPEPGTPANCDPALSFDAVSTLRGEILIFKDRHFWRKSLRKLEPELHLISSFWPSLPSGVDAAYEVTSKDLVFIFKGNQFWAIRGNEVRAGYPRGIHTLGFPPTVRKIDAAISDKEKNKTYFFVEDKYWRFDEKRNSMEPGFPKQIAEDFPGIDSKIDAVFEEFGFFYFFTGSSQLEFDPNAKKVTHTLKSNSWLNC

In the case of `C=CC[C@H](C(=O)NO)[C@@H](CC(C)C)C(=O)N[C@@H](Cc1ccccc1)C(=O)NC` [Example 1, 3R-(2-Phenyl-1S-methylcarbamoyl-ethylcarbamoyl)-5-methyl-2S-2-propenyl-hexanohydroxamic acid], the “paw volume change, Day 17 (% relative to day 13)” value in data set [1] (Day 17) turned out to be 52%. The “paw volume change, Day 20 (% relative to day 13)” value in data set [1] (Day 20) was determined as 65%. In addition, the “AUC (IC50.hrs (24hrs))” value in data set [2] is given as 233 IC50.hrs. Also, the IC50 (usually the concentration needed to halve the response being measured) in data set [3] amounted to 0.01 µM.

Take `C=CC[C@H](C(=O)NO)[C@@H](CC(C)C)C(=O)N[C@H](C(=O)NC)C(C)(C)C` [Example 5, 3R-(2,2-Dimethyl-1S-methylcarbamoyl-propylcarbamoyl)-5-methyl-2S-2-propenyl-hexanohydroxamic acid]: the IC50 was 0.08 µM in data set [4] and 0.003 to 0.004 µM in data set [3]. Also, the “AUC (IC50.hrs (24hrs))” value in data set [2] is listed as 970 IC50.hrs.

For `C=CC[C@H](C(=O)NO)[C@@H](CC(C)C)C(=O)N[C@@H](Cc1ccccc1)C(=O)NCc1ccccc1` [Example 7, 3R-(2-Phenyl-1S-phenylmethylcarbamoyl-ethylcarbamoyl)-5-methyl-2S-2-propenyl-hexanohydroxamic acid], the values for the IC50 in data set [4] and in data set [3] were 0.005 µM and 0.01 µM, respectively.

The values above are taken from patent US5652262A, “Hydroxamic acid derivatives as metalloproteinase inhibitors” (British Biotech Pharmaceutical, Ltd., priority 1993, dated 1997).
